Results published in patent US7605265B2, “Heterodimers and methods of using them” (priority 2007, dated 2009).

Key:
[1] = target: T1, butyrylcholinesterase (BChE) (Rattus norvegicus, UniProt Q9JKC1); assay: biochemical
T1 construct: from tissue; host or cells: rat serum

[2] = test system: scopolamine-induced memory impaired rats; assay: Morris water maze, scopolamine-induced memory impairment; format: in vivo, rat; details: for spatial bias: scopolamine 0.1 mg/kg; for spatial bias (% of total distance swum in the training quadrant during spatial probe trial): memory-impaired rats, FIG. 4d-4f; for escape latency: 4 days
Procedure: The Morris water maze consists of a water pool with a hidden, submerged escape platform. The rats must learn, over a period of consecutive days, the location of the platform using either contextual or local cues. The time taken to locate the hidden platform (escape latency) is a measure of the animal's cognitive abilities.
(§1) Scopolamine (0.1 mg/kg) was first i.p. administered to young adult rats to impair their memories. Scopolamine-induced memory impaired rats were then orally administered one of three different doses of compound B (0.025, 0.050, or 0.100 mg/kg) and subjected to the Morris water maze over a period of 4 days. On each day, the time taken for the rats to detect the hidden platform in the water maze was measured, in seconds.
as §1, with “C (0.1, 0.2,” for “B (0.025, 0.050,”, “0.4” for “0.100”
as §1, with “A (0.1, 0.2,” for “B (0.025, 0.050,”, “0.4” for “0.100”
A spatial bias (% of total distance swum in the training quadrant during spatial probe trial) for the region of the apparatus where the platform was positioned during training was also measured for compounds B and C.
The spatial bias for the region of the testing apparatus where the hidden platform was positioned during training was measured. […] Tacrine (THA) was included for comparison purposes.

rat cortical neurons = assay: NMDA survival assay (LDH release) in cortical neurons; format: cell-based; details: DIV11 rat cortical neurons, NMDA 20 μM, compound 0.001-10 μg/mL, LDH at 24 hr; FIG. 3
Procedure: The compounds were subjected to NMDA survival assays to investigate their ability to prevent NMDA receptor-induced excitotoxicity. The NMDA survival assay was performed to measure the degree of protection provided to cortical neuronal cells when treated with the compounds prior to an ischemic insult.
DIV10 cortical neurons were treated with NMDA (20 μM) in the presence of compound (cpd) B or C (μg/mL). LDH release in the medium was detected at 24 hr after treatment. DMSO was used as the solvent control, while MK-801 (10 μM) is a known NMDA antagonist.
DIV11 rat cortical neurons were treated with NMDA (20 μM) in the absence or presence of compounds (MK-801, 10 μM; compound A, 0.001-10 μg/mL). LDH release in the medium was detected at 24 hr after treatment. DMSO was used as the solvent control.

T1 sequence (Q9JKC1 24-597): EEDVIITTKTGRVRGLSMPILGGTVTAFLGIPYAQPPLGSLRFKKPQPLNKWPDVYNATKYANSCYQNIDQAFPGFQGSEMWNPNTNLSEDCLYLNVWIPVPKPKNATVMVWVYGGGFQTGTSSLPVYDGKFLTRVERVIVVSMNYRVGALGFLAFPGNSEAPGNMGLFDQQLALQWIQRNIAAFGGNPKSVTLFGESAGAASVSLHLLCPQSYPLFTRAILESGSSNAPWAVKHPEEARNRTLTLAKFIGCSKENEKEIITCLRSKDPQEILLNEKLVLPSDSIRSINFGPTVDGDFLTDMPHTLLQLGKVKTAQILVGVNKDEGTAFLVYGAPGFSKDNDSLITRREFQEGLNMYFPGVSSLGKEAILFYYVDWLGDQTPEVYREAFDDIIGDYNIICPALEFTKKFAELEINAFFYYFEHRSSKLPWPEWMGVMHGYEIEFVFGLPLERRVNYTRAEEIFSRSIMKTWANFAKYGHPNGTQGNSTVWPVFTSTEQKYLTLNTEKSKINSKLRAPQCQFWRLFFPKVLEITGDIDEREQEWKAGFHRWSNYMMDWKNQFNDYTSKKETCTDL

`O=c1ccc2c([nH]1)CCC(NCCCNc1c3c(nc4cc(Cl)ccc14)CCCC3)C2` (centres unmarked) [Compound A] was tested, and the IC50 [1] was 56.7 ± 25 nM, the “scopolamine-induced performance deficits (escape latency)” value ([2]; 0.2 and 0.4 mg/kg orally, scopolamine 0.1 mg/kg i.p., FIG. 4c) was “significantly reversed scopolamine-induced performance deficits” and the spatial bias ([2]; 0.2 and 0.4 mg/kg, FIG. 4e, 4f) was “spatial bias close to control levels”. For the same compound, the “spatial bias (% of total distance swum in the training quadrant during spatial probe trial)” value [2] was “significantly increased spatial bias” and the “protection against NMDA insults (LDH release)” value (rat cortical neurons) was “capable of protecting cortical neurons against NMDA insults”.
`O=c1ccc2c([nH]1)CCCC2NCCCCCCCNc1c2c(nc3cc(Cl)ccc13)CCCC2` (centres unmarked) [Compound B] was tested, and the IC50 [1] was 31.1 ± 1.96 nM, the escape latency ([2]; 0.1 mg/kg orally, scopolamine 0.1 mg/kg i.p., FIG. 4a) was “reversed the increased escape latency induced by scopolamine” and the spatial bias ([2]; 0.05 and 0.1 mg/kg p.o., FIG. 4d) was “spatial bias close to control levels”. For the same compound, the “spatial bias (% of total distance swum in the training quadrant during spatial probe trial)” value [2] was “significantly increased spatial bias”.
`O=c1ccc2c([nH]1)CCCC2NCCCCCCCCNc1c2c(nc3cc(Cl)ccc13)CCCC2` (centres unmarked) [Compound C] was tested, and the IC50 [1] was 638 ± 122 nM, the “escape latency, compared with tacrine” value ([2]; 0.2 mg/kg and 0.4 mg/kg vs 1.5 mg/kg tacrine (THA)) was “more effective that 1.5 mg/kg tacrine” and the escape latency ([2]; 0.4 mg/kg orally, scopolamine 0.1 mg/kg i.p., FIG. 4b) was “significantly reversed the increased escape latency induced by scopolamine”. The spatial bias ([2]; 0.2 and 0.4 mg/kg, FIG. 4e, 4f) was “spatial bias close to control levels” and the “spatial bias (% of total distance swum in the training quadrant during spatial probe trial)” value [2] was “significantly increased spatial bias”.
